Experimental data: ChEMBL document CHEMBL1201862, “PubChem BioAssay data set” (2004)
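Protocol summary: plate cells (96-well), add compound at 5 concentrations, incubate 48 h, interpolate endpoints linearly. Here, GI50 denotes the concentration required for 50% inhibition of growth.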 Activity calls are given as the source filed them. Rule as the data show it: active = GI50 up to about 1.1 µM and inactive = higher.

Columns and labels:
Assay in all cases: NCI-60 cell line screen, 48 h
HOP-92 = system: HOP-92
NCI/ADR-RES = system: NCI/ADR-RES
COLO 205 = system: COLO 205
UACC-257 = system: UACC-257
MDA-N = system: MDA-N
SF-539 = system: SF-539
LOX IMVI = system: LOX IMVI
SF-268 = system: SF-268
HCT-116 = system: HCT-116
OVCAR-5 = system: OVCAR-5
RXF 393 = system: RXF 393
UACC-62 = system: UACC-62
CAKI-1 = system: CAKI-1
UO-31 = system: UO-31
DU-145 = system: DU-145
SN12C = system: SN12C
SK-MEL-5 = system: SK-MEL-5
MDA-MB-231 = system: MDA-MB-231
786-0 = system: 786-0

Row | SMILES | GI50 (HOP-92) | GI50 (NCI/ADR-RES) | GI50 (COLO 205) | GI50 (UACC-257) | GI50 (MDA-N) | GI50 (SF-539) | GI50 (LOX IMVI) | GI50 (SF-268) | GI50 (HCT-116) | GI50 (OVCAR-5) | GI50 (RXF 393) | GI50 (UACC-62) | GI50 (CAKI-1) | GI50 (UO-31) | GI50 (DU-145) | GI50 (SN12C) | GI50 (SK-MEL-5) | GI50 (MDA-MB-231) | GI50 (786-0)
1 | O=c1[nH]cnc2c1ncn2[C@@H]1C[C@H]1CO | > 100 µM (inactive) | > 100 µM (inactive) | > 100 µM (inactive) | > 100 µM (inactive) | > 100 µM (inactive) | > 100 µM (inactive) | > 100 µM (inactive) | > 100 µM (inactive) | > 100 µM (inactive) | > 100 µM (inactive) | > 100 µM (inactive) | > 100 µM (inactive) | > 100 µM (inactive) | > 100 µM (inactive) | > 100 µM (inactive) | > 100 µM (inactive) | > 100 µM (inactive) | > 100 µM (inactive) | > 100 µM (inactive)
2 | CCOC(=O)C(SCCO)C(C(=O)OCC)n1cnc2c(N)ncnc21 (stereo unspecified) | 2.47 µM (inactive) | 19.8 µM (inactive) | 6.03 µM (inactive) | 35.1 µM (inactive) | 15.8 µM (inactive) | 16.3 µM (inactive) | 5.61 µM (inactive) | 15.9 µM (inactive) | 8.95 µM (inactive) | 7.05 µM (inactive) | 14.6 µM (inactive) | 12.3 µM (inactive) | 4.31 µM (inactive) | 20.7 µM (inactive) | > 67.3 µM (inactive) | 9.98 µM (inactive) | 23.1 µM (inactive) | 15.5 µM (inactive) | 3.03 µM (inactive)
3 | CCOP(=O)(CN1CCNCCN(CP(=O)(OCC)OCC)CC1)OCC | > 100 µM (inactive) | > 100 µM (inactive) | > 100 µM (inactive) | > 100 µM (inactive) | > 100 µM (inactive) | > 100 µM (inactive) | > 100 µM (inactive) | > 100 µM (inactive) | > 100 µM (inactive) | > 100 µM (inactive) | > 100 µM (inactive) | > 100 µM (inactive) | > 100 µM (inactive) | > 100 µM (inactive) | > 100 µM (inactive) | > 100 µM (inactive) | > 100 µM (inactive) | > 100 µM (inactive) | > 100 µM (inactive)
4 | CCc1c(Cl)nc(Cl)nc1Cl | 0.565 µM (active) | 0.382 µM (active) | 0.0764 µM (active) | 0.448 µM (active) | 0.259 µM (active) | 0.372 µM (active) | 0.0199 µM (active) | 0.217 µM (active) | 0.0885 µM (active) | 0.324 µM (active) | 0.296 µM (active) | 0.528 µM (active) | 0.0484 µM (active) | 1.38 µM (inactive) | 2.05 µM (inactive) | 0.333 µM (active) | 0.224 µM (active) | 0.346 µM (active) | 0.122 µM (active)
5 | Nc1cc(S(N)(=O)=O)ccc1SSc1ccc(S(N)(=O)=O)cc1N | > 100 µM (inactive) | > 100 µM (inactive) | > 100 µM (inactive) | > 100 µM (inactive) | > 100 µM (inactive) | > 100 µM (inactive) | > 100 µM (inactive) | > 100 µM (inactive) | > 100 µM (inactive) | > 100 µM (inactive) | > 100 µM (inactive) | > 100 µM (inactive) | > 100 µM (inactive) | > 100 µM (inactive) | > 100 µM (inactive) | > 100 µM (inactive) | > 52.4 µM (inactive) | > 100 µM (inactive) | > 100 µM (inactive)
6 | CC(CNC(N)=O)NC(N)=O (stereo unspecified) | > 100 µM (inactive) | > 100 µM (inactive) | > 100 µM (inactive) | > 100 µM (inactive) | > 100 µM (inactive) | > 100 µM (inactive) | > 100 µM (inactive) | > 100 µM (inactive) | > 100 µM (inactive) | > 100 µM (inactive) | > 100 µM (inactive) | > 100 µM (inactive) | > 100 µM (inactive) | > 100 µM (inactive) | > 100 µM (inactive) | > 100 µM (inactive) | > 100 µM (inactive) | > 100 µM (inactive) | > 100 µM (inactive)
7 | CCOC(=O)c1c(-c2ccc(Cl)cc2)c(C#N)c(=S)n(C2OC(COC(C)=O)C(OC(C)=O)C(OC(C)=O)C2OC(C)=O)c1C (stereo unspecified) | 0.125 µM (active) | > 100 µM (inactive) | > 100 µM (inactive) | > 100 µM (inactive) | > 100 µM (inactive) | > 100 µM (inactive) | > 100 µM (inactive) | > 100 µM (inactive) | > 100 µM (inactive) | > 100 µM (inactive) | > 100 µM (inactive) | > 100 µM (inactive) | > 100 µM (inactive) | 0.565 µM (active) | > 100 µM (inactive) | > 100 µM (inactive) | > 100 µM (inactive) | > 100 µM (inactive) | > 100 µM (inactive)
8 | CN(C)c1ccc(/C=C(\NC(=O)c2ccccc2)C(=O)NC(Cc2c[nH]c3ccccc23)C(=O)O)cc1 (stereo unspecified) | > 100 µM (inactive) | > 100 µM (inactive) | > 100 µM (inactive) | 69 µM (inactive) | > 100 µM (inactive) | > 100 µM (inactive) | > 100 µM (inactive) | > 100 µM (inactive) | > 100 µM (inactive) | > 100 µM (inactive) | > 100 µM (inactive) | > 100 µM (inactive) | > 100 µM (inactive) | > 100 µM (inactive) | > 100 µM (inactive) | > 100 µM (inactive) | > 100 µM (inactive) | > 100 µM (inactive) | > 100 µM (inactive)
9 | Cc1c(C(=O)Nc2ccccc2)nnn1-c1ccnc2cc(C(F)(F)F)ccc12 | 24.9 µM (inactive) | 42.6 µM (inactive) | 55 µM (inactive) | 22.1 µM (inactive) | 33.3 µM (inactive) | > 100 µM (inactive) | 28.6 µM (inactive) | 78.9 µM (inactive) | 45.5 µM (inactive) | > 100 µM (inactive) | 35.3 µM (inactive) | 71.9 µM (inactive) | 37.5 µM (inactive) | 30.4 µM (inactive) | 49.3 µM (inactive) | 53.2 µM (inactive) | 20.5 µM (inactive) | 19.1 µM (inactive) | 74 µM (inactive)
10 | NCCSS(=O)(=O)CCN | > 100 µM (inactive) | > 100 µM (inactive) | > 100 µM (inactive) |  | > 100 µM (inactive) | > 100 µM (inactive) | > 100 µM (inactive) | > 100 µM (inactive) | > 100 µM (inactive) | > 100 µM (inactive) | > 100 µM (inactive) | > 100 µM (inactive) | > 100 µM (inactive) | > 100 µM (inactive) | > 100 µM (inactive) | > 100 µM (inactive) | > 100 µM (inactive) | > 100 µM (inactive) | > 100 µM (inactive)
11 | O=c1c2cc3c(=O)n4c(cc(-c5ccccc5)c5cc(Cl)ccc54)nc3cc2nc2cc(-c3ccccc3)c3cc(Cl)ccc3n12 | > 100 µM (inactive) | > 100 µM (inactive) | > 100 µM (inactive) | > 100 µM (inactive) | > 100 µM (inactive) | > 100 µM (inactive) | > 100 µM (inactive) | > 100 µM (inactive) | > 100 µM (inactive) | > 100 µM (inactive) | 34.8 µM (inactive) | > 100 µM (inactive) | > 100 µM (inactive) | 37.8 µM (inactive) | > 100 µM (inactive) | > 100 µM (inactive) | > 100 µM (inactive) | 39.4 µM (inactive) | 64.1 µM (inactive)
12 | O=C1Sc2cc3ccccc3cc2C(=O)Sc2cc3ccccc3cc21 | 30.2 µM (inactive) | 29.1 µM (inactive) | > 100 µM (inactive) | 27.8 µM (inactive) | 29 µM (inactive) | 31.9 µM (inactive) | 19 µM (inactive) | 26 µM (inactive) | 17.4 µM (inactive) | 36.1 µM (inactive) | 17.7 µM (inactive) | 24.8 µM (inactive) | 32.2 µM (inactive) | 19.5 µM (inactive) | 58.7 µM (inactive) | 23.2 µM (inactive) | 50.8 µM (inactive) | > 54.6 µM (inactive) | 15.4 µM (inactive)
13 | Cc1cc2nc(C=C(C(F)(F)F)C(F)(F)F)oc2cc1C | > 10 µM (inactive) | 2.51 µM (inactive) | 0.199 µM (active) | > 10 µM (inactive) | > 10 µM (inactive) | 2.88 µM (inactive) | 2.09 µM (inactive) | 3.42 µM (inactive) | 1.38 µM (inactive) | 3.04 µM (inactive) | 2.49 µM (inactive) | 3.32 µM (inactive) | 2.42 µM (inactive) | 4.11 µM (inactive) | 5.64 µM (inactive) | 2.41 µM (inactive) | > 10 µM (inactive) | 2.88 µM (inactive) | 1.96 µM (inactive)
14 | N#CC(NNC(=O)c1c(Cl)c(Cl)c(Cl)c(Cl)c1-c1nc2cc(C(=O)c3ccccc3)ccc2[nH]1)c1cccc(Oc2ccccc2)c1 (stereo unspecified) | 17.5 µM (inactive) | 19 µM (inactive) | 20.8 µM (inactive) | 38.1 µM (inactive) | 15.4 µM (inactive) | 20.7 µM (inactive) | 37.8 µM (inactive) |  | 29.6 µM (inactive) | 28.7 µM (inactive) | 16.9 µM (inactive) |  | 35.2 µM (inactive) | 30.8 µM (inactive) | 28.3 µM (inactive) | 23.9 µM (inactive) | 15.4 µM (inactive) | 19 µM (inactive) | 22 µM (inactive)
15 | C=C(C)[C@H]1C2=CC(C)=C(O2)[C@@H](O)[C@H](C(=C)C)CCC2=C[C@H]1OC2=O [KALLOLIDE A] | > 100 µM (inactive) | > 100 µM (inactive) | > 100 µM (inactive) | > 100 µM (inactive) | > 100 µM (inactive) | > 100 µM (inactive) | > 100 µM (inactive) | > 100 µM (inactive) |  | > 100 µM (inactive) | > 100 µM (inactive) | > 100 µM (inactive) | > 100 µM (inactive) | > 100 µM (inactive) | > 100 µM (inactive) | > 100 µM (inactive) | > 100 µM (inactive) | > 100 µM (inactive) | > 100 µM (inactive)
